# Test results reported in patent US20150359854A1 (HUMAN MATRIX SCIENCES, LLC, priority 2012, published 2015).
# “Also recorded” adds a separate entry of the source.
# How the values were obtained:
# [1] = system: human aortic SMCs (AoSMCs); assay: Immunocytochemistry and morphometry of elastic fibers in AoSMC cultures; assay type: cell-based; conditions: 24-hour treatment, 0.5 to 100 nmol/L insulin, confluent AoSMCs, 2% FBS
# Excerpt: Human aortic SMCs (AoSMCs) were propagated from small fragments of aortic media collected from autopsy. Guidelines for the protection of human subjects of the US Department of Health and Human Services and of the Declaration of Helsinki were followed in obtaining tissues for this investigation. Cells migrating from the cultured explants of aortic media were routinely passaged (up to three times) via trypsinization using 0.2% trypsin-0.02% EDTA, and were maintained in DMEM supplemented with 5% FBS and 1% antibiotic-antimycotic mix. The second and third passages of cells that migrated from the original explants of aortic media were routinely probed with antibodies recognizing the SMC-specific α-actin to monitor the preservation of the SMC phenotype. All cells were initially plated at 100,000 cells per dish for immediate confluency so they would begin extracellular matrix production. The cell cultures committed to particular experiments were then transferred to DMEM containing either 2% FBS or to serum-free medium before initiation of particular treatments.
# At the end of treatments, confluent cultures of AoSMCs were fixed in cold 100% methanol at −20° C. for 30 minutes, and blocked with 1% normal goat serum for 1 hour. The cultures were then incubated for 1 hour with 10 μg/mL polyclonal antibodies to tropoelastin and/or with 10 μg/mL monoclonal antibody to SMC-specific α-actin. All cultures were then incubated for another hour with the respective fluorescein-conjugated secondary antibodies (fluorescein-conjugated goat anti-rabbit or anti-mouse). Nuclei were counterstained with red-fluorescent propidium iodide or blue-fluorescent DAPI. The cultures were then mounted in ethanol and examined using a microscope (Eclipse E1000; Nikon Instruments, Inc., Melville, N.Y.) attached to a cooled CCD camera (Retiga EX; QImaging Corp., Vancouver, BC, Canada) and a computer-generated morphometric analysis system (Image-Pro Plus software; Media Cybernetics, Inc., Bethesda, Md.). In each analyzed group, 50 low-power fields from three separate cultures were analyzed, and the areas occupied by immunodetectable elastic fibers were expressed as a percentage of the entire analyzed field.
# [2] = system: fibronectin or collagen I; assay: Immunodetection of deposited fibronectin and collagen I; assay type: cell-based, human; conditions: insulin-treated cultures of both cell types
# retinoblastoma protein = assay: Western blotting of retinoblastoma protein phosphorylation; assay type: cell-based, human; conditions: 30-minute treatment, 10 nmol/L insulin
# Excerpt: At the end of all treatments, cells from quadruplicate cultures in each experimental group were lysed using NP40 cell lysis buffer (Invitrogen Corp.). Thirty micrograms of protein extracts from each sample was suspended in standard sample buffer, resolved on 4% to 12% gradient SDS-PAGE gels, transferred to nitrocellulose membranes, and subjected to Western blotting using antibodies.
# tropoelastin = assay: Metabolically labeled tropoelastin in cell extracts and conditioned media (secretion); assay type: cell-based, human; conditions: 10 nmol/L insulin, 1 hour
# Description: Cells were plated in 35-mm dishes at a density of 100,000 cells per dish and were grown to confluency. Two microcuries [3H]-valine per milliliter fresh medium supplemented with 2% FBS was added 2 hours before the indicated treatments. At the end of each experiment, the conditioned medium was collected and subjected to immunoprecipitation using anti-tropoelastin antibody. The cell layers were washed with PBS and incubated using radioimmunoprecipitation lysis buffer for 10 minutes on ice. After centrifugation, the supernatants were collected and subjected to immunoprecipitation using anti-tropoelastin antibody. […] Final results (counts per minute) reflecting the total amount of [3H]-valine-labeled insoluble elastin in individual cultures were normalized per their DNA contents (assessed using the Qiagen […] isolation) Tissue Kit) and expressed as percentage of control values. At the end of all treatments, cells from quadruplicate cultures in each experimental group were lysed using NP40 cell lysis buffer (Invitrogen Corp.). Thirty micrograms of protein extracts from each sample was suspended in standard sample buffer, resolved on 4% to 12% gradient SDS-PAGE gels, transferred to nitrocellulose membranes, and subjected to Western blotting using antibodies. At the end of indicated treatments, the cultured cells were lysed as described, and 300 μL aliquots of cell extracts containing […] were incubated at 4° C. for 3 hours with the aliquots of protein G bound DYNABEADS® (Invitrogen Corp.) that were conjugated with either rabbit polyclonal anti-tropoelastin, goat polyclonal anti-Glut10, or rabbit polyclonal anti-S-Gal antibodies. The beads carrying the final immunoprecipitation products were then washed with PBS, resuspended in sample buffer, and boiled for 5 minutes. The released proteins were then resolved on SDS-PAGE gel and subjected to Western blotting using indicated antibodies.
# [3] = system: human aortic SMCs (AoSMCs); assay: Cell proliferation ([3H]-thymidine incorporation and Ki-67 immunodetection); assay type: cell-based; conditions: 48-hour AoSMC cultures, 0.5 to 100 nmol/L insulin
# Description: Cells were plated in 35-mm culture dishes (100,000 cells per dish) containing DMEM supplemented with 5% FBS. The cultures were grown to 70% to 80% confluency and serum-starved overnight to synchronize the cell cycles. […] The total amount of [3H]-thymidine-labeled DNA in individual cultures was then assessed via scintillation counting. […] The cultures were counterstained with hematoxylin. In each experimental group, quadruplicate cultures were examined under 200× magnification. The percentage of positively stained cells was determined and averaged over the 30 fields examined.
# IGF-1R = biological target: T1, IGF-1R (Homo sapiens, UniProt P08069); assay: Immunoprecipitation and anti-phospho-Tyr blotting of IGF-1R; assay type: cell-based; conditions: 30 minutes, 0.5 to 10 nmol/L insulin or 10 nmol/L IGF-1, AoSMCs
# T1 construct: 30-minute treatment of cultured AoSMCs; endogenous in cells; host or cells: human aortic smooth muscle cells (AoSMCs), second passage
# Description: At the end of indicated treatments, the cultured cells were lysed as described, and 300 μL aliquots of cell extracts containing 300 μL proteins were incubated at 4° C. for 3 hours with the aliquots of protein G bound DYNABEADS® (Invitrogen Corp.) that were conjugated with either rabbit polyclonal anti-tropoelastin, goat polyclonal anti-Glut10, or rabbit polyclonal anti-S-Gal antibodies. The beads carrying the final immunoprecipitation products were then washed with PBS, resuspended in sample buffer, and boiled for 5 minutes. The released proteins were then resolved on SDS-PAGE gel and subjected to Western blotting using indicated antibodies.
# [4] = after 2 hours [3H]-valine and BAPN, serum-free
# [5] = after 3 hours [3H]-valine and β-aminopropionitrile, 2% FBS
substance,measurement,setting,value
insulin,production of immunodetected elastic fibers,[1],dose-dependent increase; also recorded: induce new elastogenesis in a dose-dependent manner
same,deposition of immunodetectable fibronectin or collagen I,[2],did not reveal any up-regulation
same,site-specific phosphorylation of retinoblastoma protein on threonine 821,retinoblastoma protein,did not
same,immunodetected soluble tropoelastin in conditioned media vs untreated,tropoelastin; [4],significantly more
same,metabolically labeled soluble tropoelastin in cell extracts vs untreated,tropoelastin; [4],significantly less
same,less metabolically labeled tropoelastin in cell layer extracts than untreated controls,tropoelastin; [5],66%±6%
same,more metabolically labeled tropoelastin in conditioned media than untreated counterparts,tropoelastin; [5],94%±4%
same,"basic proliferative rate ([3H]-thymidine incorporation, Ki-67)",[3],did not induce any up-regulation
same,phosphorylation of IGF-1R,IGF-1R,did not affect phosphorylation
